Assay results from publication PMC5618657, “Osmolyte-Like Stabilizing Effects of Low GdnHCl Concentrations on D-Glucose/D-Galactose-Binding Protein” (International Journal of Molecular Sciences, 2017).
Where two headings read alike, the source gives them in different places.

Legend:
Set-up in all cases: species or system E. coli
[1] = biological target: T1, GGBP/H152C-BADAN (Escherichia coli, UniProt P0AEE5, H175C); test: Stopped-flow fluorescence kinetics of glucose binding; conditions: glucose 0.5 mM, protein 0.6 μM, 23 °C
T1 construct: polyhistidine (C); BADAN (fluorescent dye covalently linked to Cys152); made in house; host or cells: E. coli BL21(DE3)
T1 sequence (P0AEE5 24-332 H175C limits assumed): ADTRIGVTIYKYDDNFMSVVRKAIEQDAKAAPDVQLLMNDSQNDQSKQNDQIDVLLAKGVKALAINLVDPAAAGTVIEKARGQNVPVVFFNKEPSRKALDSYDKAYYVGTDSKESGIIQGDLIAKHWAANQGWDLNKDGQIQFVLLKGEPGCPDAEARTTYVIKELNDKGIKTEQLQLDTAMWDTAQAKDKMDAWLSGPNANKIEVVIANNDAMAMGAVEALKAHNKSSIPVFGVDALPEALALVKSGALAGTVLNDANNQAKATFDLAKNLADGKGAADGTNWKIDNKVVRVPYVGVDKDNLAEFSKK
From the text: The greater affinity of GGBP to glucose in the presence of low GdnHCl concentrations was also manifested by an increase in the binding rate of glucose to the protein in the presence of 0.1 M GdnHCl. It is known that, at high concentrations of one of the reactants, the reaction rate is predominately determined by the content of the substance with a low concentration (pseudo-first order conditions). Therefore, it can be expected that in solutions of high glucose concentration, the rate of the GGBP/H152C-glucose complex formation will be determined by the content of molecules with the semi-closed conformations in a protein ensemble. […]
It is expected that the decay curves should contain at least two rate constants characterizing the interconversion between the protein conformers in the absence of ligand and reflecting the glucose binding to GGBP/H152C [88]. […] Therefore, in practice, the recorded curves are approximated by monoexponential decay.
The kinetics of glucose binding to GGBP/H152C-BADAN in a timeframe from 0 to 0.04 s was measured using the MOS450spectrometerequipped with the stopped-flow mixing module SFM-4 (Bio-Logic, Seyssinet-Pariset, France). The excitation wavelength was 387 nm, the dye fluorescence signal was filtered by cut-off filter at 405 nm. […]

[2] = biological target: T2, wtGGBP (Escherichia coli, UniProt P0AEE5); test: Isothermal titration calorimetry of glucose binding (wild type); conditions: read-out: Kd (ITC)
T2 construct: polyhistidine (C); made in house; host or cells: E. coli BL21(DE3)
T2 sequence (P0AEE5 24-332 limits assumed): as the sequence (P0AEE5 24-332 H175C limits assumed) above, with C152H counted along it
From the text: (§1) For this purpose, we used isothermal titration calorimetry (ITC) (Figure 7), since this approach allows for the determination of both the stoichiometric and thermodynamic binding parameters. The results of the ITC analysis generally corresponded to the data generated by the fluorescent-based analysis of the GGBP/H152C-BADAN interaction with glucose in solutions with sub-denaturing GdnHCl concentrations. […] The enthalpy contribution to the Gibbs free energy change caused by the interaction of studied proteins with glucose was principal in all solutions tested. This indicates the significant contribution of the hydrogen bonds between protein and glucose to the protein-ligand complex formation, [91] which is in excellent agreement with the X-ray structural data showing that the glucose binding to the GGBP active center is stabilized by 13 hydrogen bonds. […]
(§2) The parameters of the binding of mutant GGBP/H152C and wtGGBP with glucose in buffer, GdnHCl, and urea solutions were determined using the isothermal titration calorimeter TA Nano ITC (TA Instruments, New Castle, DE, USA) at the Resource Center of the Thermogravimetric and Calorimetric Research (Research Park of St. Petersburg State University). […]

[3] = biological target: T3, GGBP/H152C (Escherichia coli, UniProt P0AEE5, H175C); test: Isothermal titration calorimetry of glucose binding (mutant); conditions: Kd (ITC)
T3 construct: polyhistidine (C); made in house; host or cells: E. coli BL21(DE3)
T3 sequence (P0AEE5 24-332 H175C limits assumed): as the sequence (P0AEE5 24-332 H175C limits assumed) above
From the text: as §1, §2

[4] = solution without denaturants (black)

SMILES: OC[C@H]1OC(O)[C@H](O)[C@@H](O)[C@@H]1O (stereo partly drawn) [glucose, D-Glucose]
- k (rate of GGBP/H152C-glucose complex formation) ([1]; in 0.1 M GdnHCl): 508 s⁻¹
- k (rate of GGBP/H152C-glucose complex formation) ([1]; without denaturants): 465 s⁻¹
- Kd ([2]; 0.1 M GdnHCl (red)): 0.28 ± 0.06 µM
- Kd [2, 4]: 0.31 µM
- Kd ([3]; 0.1 M GdnHCl (red)): 2.29 ± 0.08 µM
- Kd [3, 4]: 3.05 µM
